Three compounds from patent publication US20030018025A1, “Certain 4-aminomethyl-2-substituted imidazole derivatives and 2-aminomethyl-4-substituted imidazole derivatives: new classes of dopamine receptor subtype specific ligands” (Neurogen Corporation, Corporation of the State of Delaware, priority 1995, published 2003) can be followed below.

Test [1] concerns the target T1, human dopamine D4 receptor subtype (Homo sapiens, UniProt P21917).
T1 construct: expressed in transfected cells
T1 sequence (P21917 1-419): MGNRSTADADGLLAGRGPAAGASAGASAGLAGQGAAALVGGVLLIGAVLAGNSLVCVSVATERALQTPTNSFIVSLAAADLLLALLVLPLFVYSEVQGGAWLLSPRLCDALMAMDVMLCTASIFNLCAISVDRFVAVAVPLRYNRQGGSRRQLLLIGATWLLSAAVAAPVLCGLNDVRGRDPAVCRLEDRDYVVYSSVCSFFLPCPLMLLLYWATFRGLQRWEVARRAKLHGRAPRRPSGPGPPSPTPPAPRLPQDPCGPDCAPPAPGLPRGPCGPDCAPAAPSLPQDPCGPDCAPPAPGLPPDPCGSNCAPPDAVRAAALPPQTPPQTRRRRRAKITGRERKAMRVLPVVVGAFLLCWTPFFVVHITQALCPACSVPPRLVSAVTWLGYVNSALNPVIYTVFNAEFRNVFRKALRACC
Kind of test: D4 receptor binding, displacement of [3H]YM-09151-2. As to conditions: Example XXXIX table. The protocol: Assay for D4 Receptor Binding Activity
Clonal cell lines expressing the human dopamine D4 receptor subtype were harvested in PBS and the cells centrifuged and the pellets stored at −80° C. until used in the binding assay. The pellets were resuspended and the cells lysed at 4° C. in 50 mM Tris pH 7.4 buffer containing 120 mM NaCl, 1 mM EDTA and 5 mM MgCl2. The homogenate is centrifuged at 48000× g for 10 minutes at 4° C. The resulting pellet is resuspended in fresh buffer and centrifuged again. After resuspension of the pellet in fresh buffer at […] aliquot is removed for protein determination. The remaining homogenate is centrifuged as above, the supernatant removed and the pellet stored at 4° C. until needed at which time it is resuspended to a final concentration of […] with 50 mM Tris buffer (pH 7.4) and 120 mM NaCl just prior to use. Incubations were carried out for 60 minutes at 25° C. in the presence of 0.1 nM [^3H] YM-09151-2. The incubation was terminated by rapid filtration through Whatman GF/C filters and rinsed with 2×4 ml washes of chilled 50 mM Tris (pH 7.4) and 120 mM NaCl. Non-specific binding was determined with […] spiperone and radioactivity determined by coiunting in an LKB beta counter. Binding parameters were determined by non-linear least squares regression analysis, from which the inhibition constant (Ki) could be calculated for each test compound. The binding characteristics of some examples of this patent are shown in Table 2 for the dopamine D4 binding assay.

A further test deals with male Sprague Dawley rats. The experiment in a line: Step-down passive avoidance task. Format: in vivo, rat. The protocol:
Method Non-naive male Sprague Dawley rats (SASCO St Louis) weighing between […], were housed in groups of three in a temperature and humidity controlled vivarium having a 12 hour light/dark cycle. Animals had ad lib access to food and water.
Clozapine was dissolved in 50% PEG and administered in a dose range of from 0.25 to 2 mg/kg. Both drugs were administered intravenously 5 minutes prior to training in both learning tasks
A step-down passive avoidance platform 4 (cm)×7(cm) was placed in the center of an electrified gris floor, which was contained within a large (45×45×50 cm) white translucent plexiglas enclosure having a closable lid. The bars of the grip were spaced 1.5 cm apart and were wired to a BRS-LVE shock generator/scrambler which was set to deliver a 2 mA 6 second shock. Four passive avoidance boxes were automated by customer software (Labview) and commercial interface modules (National Instruments) connected to a computer The timing and delivery of the shock as well as the latency to steo down and the number of trials taken to reach criterion during training was under the control of the computer. […]
Testing was conduced approximately 24 hours after training, Drug-free animals were placed on the platform in the box in which they were trained and the latency to step down onto the unshocked floor was recorded for one trial. […]

The target in the next test is T2, Dopamine Receptor D3 (Homo sapiens, UniProt P35462).
T2 construct: expressed in transfected cells; host or cells: BHK 293 cells (so in the source)
T2 sequence (P35462 whole entry): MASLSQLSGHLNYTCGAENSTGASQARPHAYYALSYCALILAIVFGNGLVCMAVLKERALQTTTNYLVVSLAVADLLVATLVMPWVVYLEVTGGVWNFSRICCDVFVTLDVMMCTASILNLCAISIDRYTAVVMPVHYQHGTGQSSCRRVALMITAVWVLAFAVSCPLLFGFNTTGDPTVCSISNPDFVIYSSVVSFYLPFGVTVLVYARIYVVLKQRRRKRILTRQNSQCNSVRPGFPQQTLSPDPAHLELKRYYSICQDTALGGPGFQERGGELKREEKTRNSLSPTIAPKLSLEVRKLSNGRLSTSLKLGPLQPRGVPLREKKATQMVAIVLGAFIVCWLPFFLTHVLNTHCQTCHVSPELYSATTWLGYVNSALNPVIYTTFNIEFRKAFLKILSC
Kind of test: D3 receptor binding activity (Example XXXIX). The protocol: (§1) Striatial tissue is dissected from adult male Sprague Dawley rats or BHK 293 cells are harvested containing recombinantly produced D2 or D3 receptors. The sample is homogenized in 100 volumes (w/vol) of 0.05 M Tris HCl buffer at 4° C. and pH 7.4. The sample is then centrifuged at 30,000× g and resuspended and rehomogenized. The sample is then centrifuged as described and the final tissue sample is frozen until use. The tissue is resuspended 1:20 (wt/vol) in 0.05 M Tris HCl buffer containing 100 mM NaCl.
(§2) Incubations are carried out at […] and contain 0.5 ml of tissue sample, 0.5 nM ^3H-raclopride and the compound of interest in a total incubation volume of 1.0 ml.
(§3) The following compounds were assayed for D2, D3, and D4 receptor binding activity using the assays described above.

Test [2] addresses T3, dopamine D4 receptors in rat hippocampus (Rattus norvegicus, UniProt P30729).
T3 construct: from tissue; host or cells: rat hippocampus
T3 sequence (P30729 1-387): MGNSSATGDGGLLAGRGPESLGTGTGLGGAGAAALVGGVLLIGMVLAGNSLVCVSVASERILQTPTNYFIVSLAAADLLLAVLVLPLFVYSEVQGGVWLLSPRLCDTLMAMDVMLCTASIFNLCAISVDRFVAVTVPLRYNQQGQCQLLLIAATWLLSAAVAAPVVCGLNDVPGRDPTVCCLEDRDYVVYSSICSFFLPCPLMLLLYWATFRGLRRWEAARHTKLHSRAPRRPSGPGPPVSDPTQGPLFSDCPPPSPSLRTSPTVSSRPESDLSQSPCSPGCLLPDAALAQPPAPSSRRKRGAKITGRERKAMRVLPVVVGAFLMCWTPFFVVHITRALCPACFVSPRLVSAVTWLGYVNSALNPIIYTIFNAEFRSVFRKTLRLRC
The experiment in a line: Binding to D4 receptors in rat hippocampus.

Test [3] addresses T4, dopamine D4 receptors in human hippocampus (Homo sapiens, UniProt P21917).
T4 construct: from tissue; host or cells: human hippocampus
T4 sequence (P21917 1-419): T1 sequence (P21917 1-419)
Kind of test: Binding to D4 receptors in human hippocampus.

For another test, the target named is Dopamine Receptor D2 (Homo sapiens, UniProt P14416). The experiment in a line: D2 receptor binding activity (Example XXXIX). The protocol: as §1, §2, §3
Chain of Dopamine Receptor D2 (P14416 whole entry): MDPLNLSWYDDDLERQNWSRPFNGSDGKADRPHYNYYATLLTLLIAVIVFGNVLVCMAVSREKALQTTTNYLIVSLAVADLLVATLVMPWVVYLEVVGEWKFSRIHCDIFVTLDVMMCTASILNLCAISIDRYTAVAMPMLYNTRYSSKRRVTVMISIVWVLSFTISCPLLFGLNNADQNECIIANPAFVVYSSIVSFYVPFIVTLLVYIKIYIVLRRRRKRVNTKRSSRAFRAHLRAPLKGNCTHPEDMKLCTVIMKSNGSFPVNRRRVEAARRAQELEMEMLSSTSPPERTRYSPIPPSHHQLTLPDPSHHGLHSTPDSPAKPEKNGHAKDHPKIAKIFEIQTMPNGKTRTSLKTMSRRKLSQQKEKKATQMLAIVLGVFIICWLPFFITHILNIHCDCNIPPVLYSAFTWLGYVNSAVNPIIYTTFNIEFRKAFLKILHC

Entries after “also recorded” stand apart in the source; their conditions may differ. Counter-ions that a name gives are not always drawn.

In the case of `c1ccc(-c2ncc(CN3CCN(c4ncccn4)CC3)[nH]2)cc1` [Compound 23, 2-Phenyl-4(5)-[(4-(2-pyrimidinyl)-piperazin-1-yl)-methyl]-imidazole dihydrochloride], the Ki stood at 2.7 nM in test [1] and 8200 nM at Dopamine Receptor D3. Further, the “passive avoidance retention (time on platform at retest) vs vehicle” value in the test on male Sprague Dawley rats (0.25 mg/kg i.v. 5 minutes prior to training, retest about 24 hours later, dihydrochloride, 0.25 mg/kg) is “significant improvement in memory; also recorded: significantly longer time”. Further, the “passive avoidance acquisition vs vehicle” value with male Sprague Dawley rats (0.03-1.0 mg/kg i.v. 5 minutes prior to training) is reported as “no significant differences for acquisition”. In addition, the “antagonist binding to D4 receptors in hippocampus” value (shortened to “antagonist binding to D4 receptors”) in test [2] and in test [3] was “antagonists binding to dopamine D4 receptors” each time.
Take `c1ccc(-c2nc(CN3CCN(c4ccccn4)CC3)c[nH]2)cc1` [Compound 24, 2-Phenyl-4(5)-[(4-(2-pyridyl)-piperazin-1-yl)-methyl]-imidazole dihydrochloride]: the inhibition constant Ki in test [1] was found to be 0.85 nM; on Dopamine Receptor D2, 1030 nM. Moreover, the “antagonist binding to D4 receptors” value in test [2] and in test [3] was “antagonists binding to dopamine D4 receptors” throughout.
For `c1ccc(-c2ncc(CN3CCN(c4ccccc4)CC3)[nH]2)cc1` [Compound 45, 2-Phenyl-4(5)-[(4-phenyl-piperazin-1-yl)methyl]imidazole], the Ki came to 5 nM in test [1], 169 nM at Dopamine Receptor D3 and 239 nM on Dopamine Receptor D2. For the same compound, the “antagonist binding to D4 receptors” value in test [2] and in test [3] was “antagonists binding to dopamine D4 receptors” throughout.

One may read the Ki as a dissociation constant, usually derived from enzyme kinetics or from competition with a known ligand. Low values mean higher affinity, high ones lower affinity.
